Results reported in patent US12435026B2, “Solabegron zwitterion and uses thereof” (B3AR THERAPEUTICS, INC., priority 2015, dated 2025).
Each block holds one compound with its values, some of them ahead of it.

Experiments:
[1] = Relative stability of solabegron zwitterion Forms I and II via slurry conditioning in IPA/H2O; assay type: physicochemical; settings: for relative stability of crystal forms: slurry conditioning in IPA/H2O with different ratio (FIG. 10)
Procedure: The relative stability of solabegron zwitterion Forms I and II was evaluated via slurry conditioning of either solabegron zwitterion Form I or a mixture of solabegron zwitterion Forms I and II in IPA/H2O with different ratio, for a) confirmation of relative stability of the two solabegron zwitterion forms, and b) rational process design and control. The table in FIG. 10 lists the testing conditions and results.

[2] = system: women with moderate to severe OAB; settings: Ohlstein et al., Eur. Urol. 2012; cited from earlier work
[3] = Solubility among forms of solabegron; assay type: physicochemical
Text: After extensive effort, applicants have newly discovered two crystalline forms of solabegron zwitterion. One form, form I, is an anhydrous crystalline form and is characterized by an x-ray powder diffraction pattern having peaks expressed in degrees 2θ (±2) at 6.2, 12.5; 18.8; 20.6; and 25.2. A second form, form II is a hydrate of isopropanol solvate and is characterized by an x-ray powder diffraction pattern having peaks expressed in degrees 2θ (±2) at 17.6, 18.7, 19.6, 20.1, 20.5, 23.7, and 25.8. (See EXAMPLE 3 and FIGS. 7, 12 and 14). […] After isolation the solabegron crystals can be dissolved and then crystallized to the solabegron HCL salt form, which is currently being investigated clinically. Of equal importance, the pharmaceutical compositions of solabegron zwitterion disclosed herein could be used as the active ingredient clinically, replacing the need for the HCl salt form of solabegron.

Structure (SMILES): O=C(O)c1cccc(-c2cccc(NCCNC[C@H](O)c3cccc(Cl)c3)c2)c1 [solabegron zwitterion Form I]
crystal form resulting from slurry conditioning ([1]; starting with Form I alone or a mixture of Forms I and II, IPA/H2O with different ratio (FIG. 10)): Solabegron zwitterion Form II resulted from all tested conditions

Structure (SMILES): O=C(O)c1cccc(-c2cccc(NCCNC[C@H](O)c3cccc(Cl)c3)c2)c1 [solabegron, 3′-[(2-{[(2R)-2-(3-chlorophenyl)-2-hydroxyethyl]amino}ethyl)amino]biphenyl-3-carboxylic acid]
safety and tolerability; adverse events as compared to placebo [2]: safe, well tolerated, and does not demonstrate significant differences in adverse events as compared to placebo
symptoms of OAB [2]: significantly reduced the symptoms of OAB

Structure (SMILES): O=C(O)c1cccc(-c2cccc(NCCNC[C@H](O)c3cccc(Cl)c3)c2)c1 [solabegron zwitterion Form II]
relative stability of crystal forms [1]: more stable than solabegron zwitterion Form I
relative stability of crystal forms ([1]; listed as form II solabegron zwitterion): more stable than the form I solabegron zwitterion

solubility relative to other forms of solabegron [3]: least soluble form of solabegron
Structure (SMILES): O=C(O)c1cccc(-c2cccc(NCCNC[C@H](O)c3cccc(Cl)c3)c2)c1 [Solabegron zwitterion]
